Consider four compounds from ChEMBL document CHEMBL1153884, “Oligonucleotide-polyamine conjugates: influence of length and position of 2'-attached polyamines on duplex stability and antisense effect” (2009).

For experiment [1], the system named is Nucleic Acid. Put plainly: Duplex stability of RNA counter strand assessed as melting temperature. Type of experiment: nucleic-acid assay.
Experiment [2] concerns Nucleic Acid. Put plainly: Duplex stability of DNA counter strand assessed as melting temperature. It counts as nucleic-acid assay.

With `Cc1cn([C@H]2C[C@H](OP(=O)(O)OC[C@H]3O[C@@H](n4cnc5c(N)ncnc54)[C@H](O)[C@@H]3OP(=O)(O)OC[C@H]3O[C@@H](n4ccc(N)nc4=O)[C@H](O)[C@@H]3OP(=O)(O)OC[C@H]3O[C@@H](n4ccc(N)nc4=O)[C@H](O)[C@@H]3OP(=O)(O)OC[C@H]3O[C@@H](n4cnc5c(=O)[nH]c(N)nc54)[C@H](O)[C@@H]3OP(=O)(O)OC[C@H]3O[C@@H](n4ccc(N)nc4=O)[C@H](O)[C@@H]3OP(=O)(O)OC[C@H]3O[C@@H](n4cnc5c(=O)[nH]c(N)nc54)[C@H](O)[C@@H]3OP(=O)(O)OC[C@H]3O[C@@H](n4cc(C)c(=O)[nH]c4=O)C[C@@H]3OP(=O)(O)OC[C@H]3O[C@@H](n4cnc5c(=O)[nH]c(N)nc54)[C@H](O)[C@@H]3OP(=O)(O)OC[C@H]3O[C@@H](n4ccc(N)nc4=O)[C@H](O)[C@@H]3OP(=O)(O)OC[C@H]3O[C@@H](n4cnc5c(=O)[nH]c(N)nc54)[C@H](O)[C@@H]3OP(=O)(O)OC[C@H]3O[C@@H](n4cnc5c(N)ncnc54)[C@H](O)[C@@H]3OP(=O)(O)OC[C@H]3O[C@@H](n4ccc(N)nc4=O)[C@H](O)[C@@H]3OP(=O)(O)OC[C@H]3O[C@@H](n4ccc(N)nc4=O)[C@H](O)[C@@H]3OP(=O)(O)OC[C@H]3O[C@@H](n4ccc(N)nc4=O)[C@H](O)[C@@H]3OP(=O)(O)OC[C@H]3O[C@@H](n4cc(C)c(=O)[nH]c4=O)C[C@@H]3OP(=O)(O)OC[C@H]3O[C@@H](n4ccc(N)nc4=O)[C@H](O)[C@@H]3OP(=O)(O)OC[C@H]3O[C@@H](n4ccc(=O)[nH]c4=O)[C@H](NCCCNCCCCNCCCN)[C@@H]3O)[C@@H](CO)O2)c(=O)[nH]c1=O`, the figures for the Tm in experiment [1] and in experiment [2] were 63 °C and 80 °C, respectively.
In the same order, the values of `Cc1cn([C@@H]2O[C@H](CO)CN2c2ncnc3c2ncn3[C@@H]2O[C@H](COP(=O)(O)O[C@H]3[C@@H](O)[C@H](n4cnc5c(=O)[nH]c(N)nc54)O[C@@H]3COP(=O)(O)O[C@H]3[C@@H](O)[C@H](n4ccc(N)nc4=O)O[C@@H]3COP(=O)(O)O[C@H]3[C@@H](O)[C@H](n4cnc5c(=O)[nH]c(N)nc54)O[C@@H]3COP(=O)(O)O[C@H]3C[C@H](n4cc(C)c(=O)[nH]c4=O)O[C@@H]3COP(=O)(O)O[C@H]3[C@@H](O)[C@H](n4cnc5c(=O)[nH]c(N)nc54)O[C@@H]3COP(=O)(O)O[C@H]3[C@@H](O)[C@H](n4ccc(N)nc4=O)O[C@@H]3COP(=O)(O)O[C@H]3[C@@H](O)[C@H](n4cnc5c(=O)[nH]c(N)nc54)O[C@@H]3COP(=O)(O)O[C@H]3[C@@H](O)[C@H](n4ccc(N)nc4=O)O[C@@H]3COP(=O)(O)O[C@H]3[C@@H](O)[C@H](n4ccc(N)nc4=O)O[C@@H]3COP(=O)(O)O[C@H]3[C@@H](O)[C@H](n4cnc5c(N)ncnc54)O[C@@H]3COP(=O)(O)O[C@H]3[C@@H](NCCCNCCCCNCCCN)[C@H](n4ccc(=O)[nH]c4=O)O[C@@H]3CO)[C@@H](OP(=O)(O)OC[C@H]3O[C@@H](n4ccc(N)nc4=O)[C@H](O)[C@@H]3OP(=O)(O)OC[C@H]3O[C@@H](n4ccc(N)nc4=O)[C@H](O)[C@@H]3OP(=O)(O)OC[C@H]3O[C@@H](n4ccc(N)nc4=O)[C@H](O)[C@@H]3OP(=O)(O)OC[C@H]3O[C@@H](n4cc(C)c(=O)[nH]c4=O)C[C@@H]3OP(=O)(O)OC[C@H]3O[C@@H](n4ccc(N)nc4=O)[C@H](O)[C@@H]3OP(=O)(O)OC[C@H]3O[C@@H](n4ccc(=O)[nH]c4=O)[C@H](NCCCNCCCCNCCCN)[C@@H]3O)[C@H]2O)c(=O)[nH]c1=O` are 61.8 °C and 79.7 °C.
In the same order, the values of `Cc1cn([C@H]2C[C@H](OP(O)(=S)OC[C@H]3O[C@@H](n4cnc5c(N)ncnc54)[C@H](O)[C@@H]3OP(O)(=S)OC[C@H]3O[C@@H](n4ccc(N)nc4=O)[C@H](O)[C@@H]3OP(O)(=S)OC[C@H]3O[C@@H](n4ccc(N)nc4=O)[C@H](O)[C@@H]3OP(O)(=S)OC[C@H]3O[C@@H](n4cnc5c(=O)[nH]c(N)nc54)[C@H](O)[C@@H]3OP(O)(=S)OC[C@H]3O[C@@H](n4ccc(N)nc4=O)[C@H](O)[C@@H]3OP(O)(=S)OC[C@H]3O[C@@H](n4cnc5c(=O)[nH]c(N)nc54)[C@H](O)[C@@H]3OP(O)(=S)OC[C@H]3O[C@@H](n4ccc(=O)[nH]c4=O)[C@H](NCCCNCCCCNCCCN)[C@@H]3OP(O)(=S)OC[C@H]3O[C@@H](n4cnc5c(=O)[nH]c(N)nc54)[C@H](O)[C@@H]3OP(O)(=S)OC[C@H]3O[C@@H](n4ccc(N)nc4=O)[C@H](O)[C@@H]3OP(O)(=S)OC[C@H]3O[C@@H](n4cnc5c(=O)[nH]c(N)nc54)[C@H](O)[C@@H]3OP(O)(=S)OC[C@H]3O[C@@H](n4cnc5c(N)ncnc54)[C@H](O)[C@@H]3OP(O)(=S)OC[C@H]3O[C@@H](n4ccc(N)nc4=O)[C@H](O)[C@@H]3OP(O)(=S)OC[C@H]3O[C@@H](n4ccc(N)nc4=O)[C@H](O)[C@@H]3OP(O)(=S)OC[C@H]3O[C@@H](n4ccc(N)nc4=O)[C@H](O)[C@@H]3OP(O)(=S)OC[C@H]3O[C@@H](n4cc(C)c(=O)[nH]c4=O)C[C@@H]3OP(O)(=S)OC[C@H]3O[C@@H](n4ccc(N)nc4=O)[C@H](O)[C@@H]3OP(O)(=S)OC[C@H]3O[C@@H](n4ccc(=O)[nH]c4=O)[C@H](NCCCNCCCCNCCCN)[C@@H]3O)[C@@H](CO)O2)c(=O)[nH]c1=O` (stereo partly drawn) are 53 °C and 66.8 °C.
In the same order, the values of `Cc1cn([C@H]2C[C@H](OP(O)(=S)OC[C@H]3O[C@@H](n4cnc5c(N)ncnc54)[C@H](O)[C@@H]3OP(O)(=S)OC[C@H]3O[C@@H](n4ccc(N)nc4=O)[C@H](O)[C@@H]3OP(O)(=S)OC[C@H]3O[C@@H](n4ccc(N)nc4=O)[C@H](O)[C@@H]3OP(O)(=S)OC[C@H]3O[C@@H](n4cnc5c(=O)[nH]c(N)nc54)[C@H](O)[C@@H]3OP(O)(=S)OC[C@H]3O[C@@H](n4ccc(N)nc4=O)[C@H](O)[C@@H]3OP(O)(=S)OC[C@H]3O[C@@H](n4cnc5c(=O)[nH]c(N)nc54)[C@H](O)[C@@H]3OP(O)(=S)OC[C@H]3O[C@@H](n4cc(C)c(=O)[nH]c4=O)C[C@@H]3OP(O)(=S)OC[C@H]3O[C@@H](n4cnc5c(=O)[nH]c(N)nc54)[C@H](O)[C@@H]3OP(O)(=S)OC[C@H]3O[C@@H](n4ccc(N)nc4=O)[C@H](O)[C@@H]3OP(O)(=S)OC[C@H]3O[C@@H](n4cnc5c(=O)[nH]c(N)nc54)[C@H](O)[C@@H]3OP(O)(=S)OC[C@H]3O[C@@H](n4cnc5c(N)ncnc54)[C@H](O)[C@@H]3OP(O)(=S)OC[C@H]3O[C@@H](n4ccc(N)nc4=O)[C@H](O)[C@@H]3OP(O)(=S)OC[C@H]3O[C@@H](n4ccc(N)nc4=O)[C@H](O)[C@@H]3OP(O)(=S)OC[C@H]3O[C@@H](n4ccc(N)nc4=O)[C@H](O)[C@@H]3OP(O)(=S)OC[C@H]3O[C@@H](n4cc(C)c(=O)[nH]c4=O)C[C@@H]3OP(O)(=S)OC[C@H]3O[C@@H](n4ccc(N)nc4=O)[C@H](O)[C@@H]3OP(O)(=S)OC[C@H]3O[C@@H](n4ccc(=O)[nH]c4=O)[C@H](NCCCNCCCCNCCCN)[C@@H]3O)[C@@H](CO)O2)c(=O)[nH]c1=O` (stereo partly drawn) are 53.2 °C and 74.3 °C.

Broadly, the Tm is the temperature at which the thermal transition is half complete.
